Like-named read-outs stand apart in the source and are kept apart here.
What was measured:
Type in all cases: cell-based
[1] = test system: U251 central nervous system cancer cells; assay: antitumor activity, sulforhodamine B cell growth assay, U251
Procedure: (§1) The THIQ compound containing a macrocyclic structure of the present invention was administered to various cancer cell lines, and the antitumor activity (Go value) was observed. Specifically, verification was performed according to the literature (Yamori, T.; Matsunaga, A.; Sato, S.; Yamazaki, K.; Komi, A.; Ishizu, K. et al. Cancer Res. 1999, 59, 4042) by the following procedure.
(§2) Cells were plated at an appropriate density in a 96-well plate in RPMI 1640 together with 5% fetal bovine serum, and adhered overnight. The cells were exposed to a drug for 48 hours. Then, according to the sulforhodamine B assay described by Skehan et al (Skehan P., Storeng R., Scudiero D., Monks A., McMahon J., Vistica D., Warren J. T., Bokesch H., Kenney S., Boyd M. R. J Natl. Cancer Inst, 1990, 82, 1107-1112), the cell growth rate was measured. The absorbance of the control well (C) and the test well (T) was measured at 525 nm. In addition, the time at which the drug was added was set as time 0, and the absorbance for the test well (T0) was measured. Using these measured values, the cell growth inhibitory effect (% growth=PG) was calculated by the following formula at each concentration of the drug.
(§3) (T<T0): PG=100×[(T−T0)/T]
(§4) The PG values determined above for each cell line were plotted against the concentration (logarithm) on a semi-logarithmic graph, and summarized for each visceral cancer. Concentrations at which the dose-response curve of each cell line crossed the horizontal line of PG=50%, 0%, or −50% were calculated. These concentrations were defined as Log GI50, Log TGI, and Log LC50. Actually, using two data points of the drug concentration before and after crossing each horizontal line, the drug concentration (logarithmic value) at the intersection of the straight line connecting the two points and the horizontal line for each PG was calculated.

[2] = test system: NCI-H23 lung cancer cells; assay: antitumor activity, sulforhodamine B cell growth assay, NCI-H23
Procedure: as §1, §2, §3, §4

[3] = test system: MCF-7 breast cancer cells; assay: antitumor activity, sulforhodamine B cell growth assay, MCF-7
Procedure: as §1, §2, §3, §4

[4] = test system: MKN1 gastric cancer cells; assay: antitumor activity, sulforhodamine B cell growth assay, MKN1
Procedure: as §1, §2, §3, §4

[5] = test system: HCC2998 colorectal cancer cells; assay: antitumor activity, sulforhodamine B cell growth assay, HCC2998
Procedure: as §1, §2, §3, §4

[6] = test system: MKN74 gastric cancer cells; assay: antitumor activity, sulforhodamine B cell growth assay, MKN74
Procedure: as §1, §2, §3, §4

DMS273 lung cancer cells = assay: antitumor activity, sulforhodamine B cell growth assay, DMS273
Procedure: as §1, §2, §3, §4

[7] = test system: SNB-75 central nervous system cancer cells; assay: antitumor activity, sulforhodamine B cell growth assay, SNB-75
Procedure: as §1, §2, §3, §4

[8] = test system: PC-3 prostate cancer cells; assay: antitumor activity, sulforhodamine B cell growth assay, PC-3
Procedure: as §1, §2, §3, §4

A549 lung cancer cells = assay: antitumor activity, sulforhodamine B cell growth assay, A549
Procedure: as §1, §2, §3, §4

OVCAR-8 cancer cells = assay: antitumor activity, sulforhodamine B cell growth assay, OVCAR-8
Procedure: as §1, §2, §3, §4

[9] = test system: various cancer cell lines; assay: Verification of antitumor activity, whole panel of cancer cell lines; settings: in words, compared with Cyanosafracin B
Procedure: as §1, §2, §3, §4

[10] = test system: NCI-H460 lung cancer cells; assay: antitumor activity, sulforhodamine B cell growth assay, NCI-H460
Procedure: as §1, §2, §3, §4

OVCAR-3 cancer cells = assay: antitumor activity, sulforhodamine B cell growth assay, OVCAR-3
Procedure: as §1, §2, §3, §4

[11] = test system: HBC-5 breast cancer cells; assay: antitumor activity, sulforhodamine B cell growth assay, HBC-5
Procedure: as §1, §2, §3, §4

[12] = test system: BSY-1 breast cancer cells; assay: antitumor activity, sulforhodamine B cell growth assay, BSY-1
Procedure: as §1, §2, §3, §4

[13] = test system: DU-145 prostate cancer cells; assay: antitumor activity, sulforhodamine B cell growth assay, DU-145
Procedure: as §1, §2, §3, §4

[14] = test system: KM-12 colorectal cancer cells; assay: antitumor activity, sulforhodamine B cell growth assay, KM-12
Procedure: as §1, §2, §3, §4

SK-OV-3 cancer cells = assay: antitumor activity, sulforhodamine B cell growth assay, SK-OV-3
Procedure: as §1, §2, §3, §4

[15] = test system: SF-268 central nervous system cancer cells; assay: antitumor activity, sulforhodamine B cell growth assay, SF-268
Procedure: as §1, §2, §3, §4

LOX-IMVI melanoma cells = assay: antitumor activity, sulforhodamine B cell growth assay, LOX-IMVI
Procedure: as §1, §2, §3, §4

[16] = test system: SF-539 central nervous system cancer cells; assay: antitumor activity, sulforhodamine B cell growth assay, SF-539
Procedure: as §1, §2, §3, §4

C=C1/C=C/CN[C@@H](C)C(=O)NCC2c3c(c(c(C)c4c3OCO4)OC1)C[C@H]1[C@H]3c4c(cc(C)c(OC)c4O)C[C@@H]([C@H](C#N)N21)N3C [Compound 33]
GI50 ([1]; U251, drug exposure 48 hours, read-out: GI50 value: 50% growth inhibitory concentration): 55 nM | GI50 ([2]; NCI-H23, drug exposure 48 hours, read-out: GI50 value: 50% growth inhibitory concentration): 93 nM | GI50 ([3]; MCF-7, drug exposure 48 hours, read-out: GI50 value: 50% growth inhibitory concentration): 26 nM | GI50 ([4]; MKN1, drug exposure 48 hours, read-out: GI50 value: 50% growth inhibitory concentration): 68 nM | GI50 ([5]; HCC2998, drug exposure 48 hours, read-out: GI50 value: 50% growth inhibitory concentration): 140 nM | GI50 ([6]; MKN74, drug exposure 48 hours, read-out: GI50 value: 50% growth inhibitory concentration): 260 nM | GI50 (DMS273 lung cancer cells; DMS273, drug exposure 48 hours, read-out: GI50 value: 50% growth inhibitory concentration): 140 nM | GI50 ([7]; SNB-75, drug exposure 48 hours, read-out: GI50 value: 50% growth inhibitory concentration): 96 nM | GI50 ([8]; PC-3, drug exposure 48 hours, read-out: GI50 value: 50% growth inhibitory concentration): 190 nM | GI50 (A549 lung cancer cells; A549, drug exposure 48 hours, read-out: GI50 value: 50% growth inhibitory concentration): 360 nM | GI50 (OVCAR-8 cancer cells; OVCAR-8, drug exposure 48 hours, read-out: GI50 value: 50% growth inhibitory concentration): 180 nM | antitumor activity [9]: better antitumor activity than Cyanosafracin B | GI50 ([10]; NCI-H460, drug exposure 48 hours, read-out: GI50 value: 50% growth inhibitory concentration): 260 nM | GI50 (OVCAR-3 cancer cells; OVCAR-3, drug exposure 48 hours, read-out: GI50 value: 50% growth inhibitory concentration): 70 nM | GI50 ([11]; HBC-5, drug exposure 48 hours, read-out: GI50 value: 50% growth inhibitory concentration): 40 nM | GI50 ([12]; BSY-1, drug exposure 48 hours, read-out: GI50 value: 50% growth inhibitory concentration): 18 nM | GI50 ([13]; DU-145, drug exposure 48 hours, read-out: GI50 value: 50% growth inhibitory concentration): 370 nM | GI50 ([14]; KM-12, drug exposure 48 hours, read-out: GI50 value: 50% growth inhibitory concentration): 110 nM | GI50 (SK-OV-3 cancer cells; SK-OV-3, drug exposure 48 hours, read-out: GI50 value: 50% growth inhibitory concentration): 500 nM | GI50 ([15]; SF-268, drug exposure 48 hours, read-out: GI50 value: 50% growth inhibitory concentration): 110 nM | GI50 (LOX-IMVI melanoma cells; LOX-IMVI, drug exposure 48 hours, read-out: GI50 value: 50% growth inhibitory concentration): 31 nM | GI50 ([16]; SF-539, drug exposure 48 hours, read-out: GI50 value: 50% growth inhibitory concentration): 46 nM

C#CCN1C(=O)[C@H]2[C@@H]3C=C(COc4c(C)c5c(c6c4C[C@H]4[C@H]7c8c(cc(C)c(OC)c8O)C[C@@H]([C@H](C#N)N4C6CNC(=O)[C@H](C)NC(=O)OC3)N7C)OCO5)C[C@H]2C1=O [Compound 47]
GI50 ([1]; Homo sapiens, U-251, U251 central nervous system cancer cells, read-out: antitumor activity GI50 value: 50% growth inhibitory concentration): 350 nM | GI50 ([2]; Homo sapiens, NCI-H23, NCl-H23 lung cancer cells, read-out: antitumor activity GI50 value: 50% growth inhibitory concentration): 850 nM | GI50 ([3]; Homo sapiens, MCF7, MCF-7 breast cancer cells, read-out: antitumor activity GI50 value: 50% growth inhibitory concentration): 63 nM | GI50 ([4]; Homo sapiens, MKN-1, MKN1 gastric cancer cells, read-out: antitumor activity GI50 value: 50% growth inhibitory concentration): 290 nM | GI50 ([5]; Homo sapiens, HCC 2998, HCC2998 colorectal cancer cells, read-out: antitumor activity GI50 value: 50% growth inhibitory concentration): 410 nM | GI50 ([6]; Homo sapiens, MKN-74, MKN74 gastric cancer cells, read-out: antitumor activity GI50 value: 50% growth inhibitory concentration): 1500 nM | GI50 (DMS273 lung cancer cells; Homo sapiens, DMS-273, DMS273 lung cancer cells, read-out: antitumor activity GI50 value: 50% growth inhibitory concentration): 450 nM | GI50 ([7]; Homo sapiens, SNB-75 central nervous system cancer cells, read-out: antitumor activity GI50 value: 50% growth inhibitory concentration): 330 nM | GI50 ([8]; PC-3 prostate cancer cells, read-out: antitumor activity GI50 value: 50% growth inhibitory concentration): 1500 nM | GI50 (A549 lung cancer cells; Homo sapiens, A549 lung cancer cells, read-out: antitumor activity GI50 value: 50% growth inhibitory concentration): 3900 nM | GI50 (OVCAR-8 cancer cells; Homo sapiens, OVCAR-8 cervical cancer cells, read-out: antitumor activity GI50 value: 50% growth inhibitory concentration): 1100 nM | antitumor activity [9]: better antitumor activity than Cyanosafracin B | GI50 ([10]; Homo sapiens, NCI-H460, NCl--H460 lung cancer cells, read-out: antitumor activity GI50 value: 50% growth inhibitory concentration): 630 nM | GI50 (OVCAR-3 cancer cells; Homo sapiens, OVCAR-3 cervical cancer cells, read-out: antitumor activity GI50 value: 50% growth inhibitory concentration): 330 nM | GI50 ([11]; HBC5, HBC-5 breast cancer cells, read-out: antitumor activity GI50 value: 50% growth inhibitory concentration): 300 nM | GI50 ([12]; BSY-1 breast cancer cells, read-out: antitumor activity GI50 value: 50% growth inhibitory concentration): 150 nM | GI50 ([13]; Homo sapiens, DU-145 prostate cancer cells, read-out: antitumor activity GI50 value: 50% growth inhibitory concentration): 3900 nM | GI50 ([14]; Homo sapiens, KM12, KM-12 colorectal cancer cells, read-out: antitumor activity GI50 value: 50% growth inhibitory concentration): 450 nM | GI50 (SK-OV-3 cancer cells; Homo sapiens, SK-OV-3 cervical cancer cells, read-out: antitumor activity GI50 value: 50% growth inhibitory concentration): 3900 nM | GI50 ([15]; Homo sapiens, SF-268 central nervous system cancer cells, read-out: antitumor activity GI50 value: 50% growth inhibitory concentration): 620 nM | GI50 (LOX-IMVI melanoma cells; Homo sapiens, LOX-IMVI melanoma cells, read-out: antitumor activity GI50 value: 50% growth inhibitory concentration): 160 nM | GI50 ([16]; Homo sapiens, SF-539 central nervous system cancer cells, read-out: antitumor activity GI50 value: 50% growth inhibitory concentration): 290 nM

— US20240197726A1, “NOVEL TETRAHYDROISOQUINOLINE ALKALOID COMPOUND CONTAINING MACROCYCLE” (THE UNIVERSITY OF TOKYO, priority 2021, published 2024)
